Where two headings read alike, the source gives them in different places.
Assays:
[1] = target: T1, Lethal Factor (LF) protease of anthrax toxin (Bacillus anthracis, UniProt P15917); assay: biochemical
[2] = target: T1, Lethal Factor (LF) protease of anthrax toxin; assay: biochemical; remark: listed apart in the source
macrophages = format: cell-based

T1 sequence (P15917 34-809 limits assumed): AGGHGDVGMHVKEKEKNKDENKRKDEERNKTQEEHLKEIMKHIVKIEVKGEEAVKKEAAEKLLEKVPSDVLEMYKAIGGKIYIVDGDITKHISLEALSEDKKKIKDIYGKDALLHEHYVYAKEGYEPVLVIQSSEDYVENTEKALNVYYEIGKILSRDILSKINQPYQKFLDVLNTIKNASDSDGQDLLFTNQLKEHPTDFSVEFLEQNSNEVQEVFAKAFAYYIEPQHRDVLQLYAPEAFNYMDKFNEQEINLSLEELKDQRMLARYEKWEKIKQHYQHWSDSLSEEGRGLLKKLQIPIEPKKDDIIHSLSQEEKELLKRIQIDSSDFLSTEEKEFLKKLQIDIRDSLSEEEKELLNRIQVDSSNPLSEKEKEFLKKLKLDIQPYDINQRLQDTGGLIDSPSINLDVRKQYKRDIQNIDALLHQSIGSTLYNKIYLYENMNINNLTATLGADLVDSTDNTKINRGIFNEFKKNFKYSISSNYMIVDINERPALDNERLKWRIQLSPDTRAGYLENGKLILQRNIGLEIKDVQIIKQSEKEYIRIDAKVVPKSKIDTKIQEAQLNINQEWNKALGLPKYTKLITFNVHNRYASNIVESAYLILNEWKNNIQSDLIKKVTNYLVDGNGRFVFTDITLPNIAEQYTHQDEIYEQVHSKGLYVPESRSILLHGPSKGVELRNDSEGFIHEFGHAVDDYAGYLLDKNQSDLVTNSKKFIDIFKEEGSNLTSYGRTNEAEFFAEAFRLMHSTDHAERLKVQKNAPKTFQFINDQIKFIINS

Compound	pIC50 Obs [1]	IC50 ([1]; read-out: IC50) [µM]	further results
O=C(O)CN1C(=O)/C(=C/c2ccco2)SC1=S [BI-9B9b]	3.85	140	inhibition at 140 µM ([1]; read-out: LF inhibition): 50%; inhibition at 140 µM ([2]; read-out: LF inhibition): 50%
O=C(O)CN1C(=O)/C(=C/c2ccc(-c3ccc(Cl)cc3)o2)SC1=S [BI-11A9]	6.05	0.9	–
O=C(O)CN1C(=O)/C(=C/c2ccc(-c3ccc(Br)cc3)o2)SC1=S [BI-11A10]	6.07	0.85	–
O=C(O)CN1C(=O)/C(=C/c2ccc(-c3ccc(Cl)cc3[N+](=O)[O-])o2)SC1=S [BI-11A11]	6.30	0.5	–
O=C(O)CN1C(=O)/C(=C/c2ccc(-c3ccc(Cl)c(Cl)c3)o2)SC1=S [BI-11B2]	6.58	0.265	potency relative to GM6001 (macrophages): 100 fold
O=C(O)CN1C(=O)/C(=C/c2ccc(-c3cc(C(F)(F)F)ccc3Cl)o2)SC1=S [BI-11B3]	6.71	0.195	Ki [1]: 0.032 µM; LF activity / cleavage of fluorinated peptide seen by 19F NMR [2]: potent LF inhibition; potency relative to GM6001 (macrophages): 100 fold
O=C(O)CN1C(=O)/C(=C/c2ccc(-c3ccccc3)s2)SC1=S [BI-11B10]	6.13	0.74	–
CN1C(=N)NC(=O)/C1=C\c1ccc(-c2cc(C(F)(F)F)ccc2Cl)o1 [BI-11B11]	4	–	–
O=C1NC(=S)NC(=O)C1=Cc1ccc(-c2ccc(Cl)cc2)o1 [BI-11B12]	5.36	4.4	–
COc1ccc(-c2ccc(C=C3C(=O)NC(=S)NC3=O)o2)cc1Cl [BI-11C1]	5.52	3	–
O=C1NC(=S)NC(=O)C1=Cc1ccc(-c2cc(C(F)(F)F)ccc2Cl)o1 [BI-11C2]	5.89	1.3	–
O=C1NC(=S)NC(=O)C1=Cc1ccc(-c2ccc(Cl)c(Cl)c2)o1 [BI-11C3]	5.68	2.1	–
O=C1NC(=S)NC(=O)C1=Cc1ccc(-c2ccccc2)s1 [BI-11C4]	5.92	1.2	–
CN1C(=N)NC(=O)/C1=C\c1ccc(-c2ccc(Cl)cc2)o1 [BI-11C5]	3.70	200	–
CN1C(NC(=O)O)=NC(=O)/C1=C\c1ccc(-c2ccc(Cl)cc2)o1 [BI-11C11]	>4	–	IC50 [1]: > 100 µM
O=C(O)CN1C(=O)/C(=C/c2ccc(-c3ccccc3)o2)SC1=S [BI-11C12]	4.78	16.6	–
O=C(O)CN1C(=O)/C(=C/c2cccs2)SC1=S [BI-11D1]	4.10	79.4	–
O=C(O)CN1C(=O)/C(=C/c2nccs2)SC1=S [BI-11D2]	4.14	72.4	–
O=C(O)CN1C(=O)/C(=C/c2ccc(-c3cccs3)s2)SC1=S [BI-11D3]	5.64	–	–
O=C(O)CN1C(=O)/C(=C/c2ncc(-c3ccc(Cl)cc3)s2)SC1=S [BI-11D5]	5.00	10	–

Compound	pIC50 Obs [1]	IC50 ([1]; read-out: IC50) [µM]	further results
COc1ccc(-c2cnc(/C=C3\SC(=S)N(CC(=O)O)C3=O)s2)cc1OC [BI-11D6]	5.30	5	–
O=C(O)CN1C(=O)S/C(=C\c2ccc(-c3ccc(Cl)c(Cl)c3)o2)C1=O [BI-11D8]	5.25	5.6	–
O=C(O)CN1C(=O)/C(=C/c2ccc(-c3cc(C(F)(F)F)ccc3Cl)o2)SC1=S [BI-11D9]	–	–	IC50 [1]: 5.9 µM
O=C(O)CN1C(=O)/C(=C/c2ccc(-c3ccc(Cl)cc3)s2)SC1=S [BI-11D10]	5.49	3.2	–
O=C(O)CN1C(=O)S/C(=C\c2ccc(/C=C3\SC(=S)N(CC(=O)O)C3=O)s2)C1=O [BI-11E2]	–	–	IC50 [1]: 1.58 µM
O=C(O)CN1C(=O)/C(=C/c2ncc(-c3ccc(F)cc3)s2)SC1=S [BI-11E3]	4.65	22.4	–
O=C(O)CN1C(=O)/C(=C/c2ncc(-c3ccc(Br)cc3)s2)SC1=S [BI-11E4]	5.36	4.4	–
O=C(O)CCN1C(=O)/C(=C/c2ccc(-c3ccc(Cl)cc3)o2)SC1=S [BI-MFM3]	5.77	1.7	Ki [1]: 0.8 ± 0.3 µM; effect on the Vmax [1]: no effect; type of inhibition [1]: competitive; inhibition at 10 µM ([1]; read-out: LF inhibition): > 70%; LF activity / cleavage of fluorinated peptide seen by 19F NMR [2]: Only the ^19F NMR signal relative to uncleaved peptide appears; inhibitory activity relative to GM6001 [2]: about twice as strong as GM6001
O=C1/C(=C/c2ccc(-c3ccc(Cl)cc3)o2)SC(=S)N1Cc1ccco1 [Compound 2]	–	150	–
C=CCN1C(=O)/C(=C/c2ccc(-c3ccc(F)cc3)o2)SC1=S [Compound 3]	–	50	–
O=C1/C(=C/c2ccc(-c3ccccc3[N+](=O)[O-])o2)SC(=S)N1CCc1ccccc1 [Compound 6]	–	31.9	–
O=C(O)c1ccc(-c2ccc(/C=C3\SC(=S)N(Cc4cccnc4)C3=O)o2)cc1Cl [Compound 11]	–	9.9	–
NS(=O)(=O)c1ccc(-c2ccc(/C=C3\SC(=S)N(CC(=O)O)C3=O)o2)cc1 [Compound 12]	–	9.1	–
O=C1NC(=S)S/C1=C\c1ccc(-c2ccc(Cl)c(Cl)c2)o1 [Compound 13]	–	7.4	inhibition at 10 µM ([1]; read-out: LF inhibition): > 70%
O=C1NC(=S)S/C1=C\c1ccc(-c2ccc(Br)c(Cl)c2)o1 [Compound 14]	–	7	inhibition at 10 µM ([1]; read-out: LF inhibition): > 70%
O=C(O)CN1C(=O)/C(=C/c2ccc(-c3ccc(I)cc3)o2)SC1=S [Compound 16]	–	5.5	inhibition at 10 µM ([1]; read-out: LF inhibition): > 70%
C=CCN1C(=O)/C(=C/c2ccc(-c3ccc(C(=O)O)c(Cl)c3)o2)SC1=S [Compound 20]	–	2.7	–
O=C(O)CCCN1C(=O)/C(=C/c2ccc(-c3ccc(Br)cc3)o2)SC1=S [Compound 21]	–	2.3	–
CNC(=O)[C@H](Cc1c[nH]c2ccccc12)NC(=O)[C@@H](CC(=O)NO)CC(C)C [GM6001, reference compound]	–	–	LF activity / cleavage of fluorinated peptide seen by 19F NMR [2]: reduced by approximately half

From patent US7718680B2 (priority 2004, dated 2010)
